Among the data in US11952374B2, “Bicyclic compounds” (Aligos Therapeutics, Inc., priority 2020, dated 2024) are CC50 and EC50 values, retold here.

Structures are written as SMILES. Read-outs that look alike come from different tables or passages of the source. A value given as a limit tells only on which side of the number the result lay.

Series [1] can be described thus: Cell viability by CellTiter-Glo 2.0 (intracellular ATP) in HepG2.117 cells. It counts as cell-based. The conditions noted are these: human, CellTiter-Glo 2.0, 3 days incubation. The procedure:
(§1) The following assay procedure describes the HBV antiviral assay, using HepG2.117 cells, which carry a stably integrated genotype D HBV genome under the control of a Tet-off promoter, and intracellular HBV DNA quantification as endpoint. Cell viability is assessed in parallel by measuring the intracellular ATP content using CellTiter-Glo 2.0 (Promega).
(§2) On day 1, medium is removed from each well, the test articles are diluted in culture medium without doxcycyline and 100 μL was added to cell culture wells (9 concentrations, 4-fold dilution). For each plate, 6 untreated (merely DMSO) wells are included. The final concentration of DMSO in the culture medium is 2%. Each plate is prepared in duplicate (one for HBV DNA extraction, one for CellTiter-Glo 2.0 measurement). The cells are incubated at 37° C. and 5% CO2 for 3 days.
(§3) On day 4, cell viability is assessed using CellTiter-Glo 2.0 and cell lysates are prepared for HBV DNA extraction and subsequent quantification by qPCR.
Using the other plates, the cell viability is quantified by CellTiter-Glo 2.0 according to the manufacturer's manual. In brief, 100 μL of reagent solution is added to the culture plates and shaken for 2′. The plates are incubated at room temperature for 10 min and luminescence signal is subsequently measured on a VarioSkan Lux (ThermoFisher) plate reader.
(§4) Cell viability is calculated as follows: % Cell viability=(luminescence value of test sample)/(average luminescence value of 2% DMSO control)×100%. HBV DNA inhibition was calculated as follows: 100−(HBV DNA copy number of test sample)/(average HBV DNA copy number of 2% DMSO control)×100%. No normalization to entecavir is required due to the excellent dynamic window of this assay. The CC50, EC50 and EC90 values were determined by dose-response curves fitted using non-linear regression.

The test system of series [2] is HBV. The series can be described thus: HBV-DNA antiviral assay using HepG2.117 cells (intracellular HBV DNA by qPCR). Format: cell-based, HBV genotype D. The conditions noted are these: Hepatitis B virus. As for the experimental part:
as §1
On day 0, HepG2.117 cells (which are maintained in routine cell culture with doxycycline present in the medium at a final concentration of 1 μg/mL) are seeded in 96-well plates (white with clear bottom) at a density of 2.0×10^4 cells/well (0.1 mL/well) in medium without doxycycline to induce pgRNA transcription and subsequent formation of HBV particles. The cells are incubated at 37° C. and 5% CO2.
as §2, §3
Medium is removed from each well and 100 μL of 0.33% NP-40 in H2O was added to each well. Plates are sealed, incubated at 4° C. for 5 mins, vortexed extensively and centrifuged briefly. Next, 35 μL of lysate is added to 65 μL QuickExtract DNA Extraction Solution (Epicentre) in a PCR plate for each well. PCR plate is incubated at 65° C. for 6 mins, 98° C. for 2 mins and finally cooled to 4° C. HBV DNA is then quantified by qPCR with HBV-specific primers and probes as specified in Table 2 using the Bio-Rad SSOAdvanced Universal Probes Supermix on a CFX96 machine (Bio-Rad). The PCR cycle program consisted of 95° C. for 3 mins, followed by 40 cycles at 95° C. for 10 sec and 60° C. for 30 sec.
A DNA standard is prepared by dilution of an IDT gBlock corresponding to the amplicon with concentrations ranging from 10^A2 to 10^A8 copies/input (i.e. per 4 μL) and used to generate a standard curve by plotting Cq values vs. HBV DNA standard concentration. The quantity of HBV DNA in each sample is determined by interpolating from the standard curve.
as §4

[3] abbreviates: 72 h, HBV DNA inhibition, HepG2.117 cells, 3 days incubation, read-out: EC50.

The term CC50 denotes the concentration that lowers cell viability or growth by half. For orientation: EC50 means the midpoint of the concentration-response curve.

The compound `CNC(=O)c1ccc(-n2c(C3CCN(C(=O)OC(C)(C)C)C3)nc3c(c2=O)CC(C)N(C(=O)c2ccc(Br)c(C(F)(F)F)c2)C3)cc1` (stereo not shown) [Compound 17, t-butyl 3-(7-(4-bromo-3-(trifluoromethyl)benzoyl)-6-methyl-3-(4-(methylcarbamoyl)phenyl)-4-oxo-3,4,5,6,7,8-hexahydropyrido[3,4-d]pyrimidin-2-yl)pyrrolidine-1-carboxylate] registered a CC50 at 3 days in series [1] of 24.2 µM. For the same compound, the EC50 in series [2] (setting [3]) was 0.05 to 0.5 µM.
For `COc1ccc(-n2c(-c3ccccc3)nc3c(c2=O)CCN(C(=O)c2ccc(Br)c(C(F)(F)F)c2)C3)cc1` [Compound 7, 7-(4-bromo-3-(trifluoromethyl)benzoyl)-3-(4-methoxyphenyl)-2-phenyl-5,6,7,8-tetrahydropyrido[3,4-d]pyrimidin-4(3H)-one], the CC50 at 3 days in series [1] was above 0.5 µM. In addition, the EC50 in series [2] (HepG2.117, 72 h) was 0.5 to 5 µM.
Turning to `CNC(=O)c1ccc(-n2c([C@@H]3CCCN3C(C)C)nc3c(c2=O)CC(C)N(C(=O)c2ccc(Br)c(C(F)(F)F)c2)C3)cc1` (single isomer, unassigned) [Compound 11a], the CC50 at 3 days in series [1] was above 50 µM. Also, the EC50 in series [2] (setting [3]) lay within 0.5 to 5 µM.
Compound `CNC(=O)c1ccc(-n2c(N(Cc3ccccc3)C3CN(C)C3)nc3c(c2=O)C[C@@H](C)N(C(=O)c2ccc(Br)c(C(F)(F)F)c2)C3)cc1` [Compound 13, (R)-4-(2-(benzyl(1-methylazetidin-3-yl)amino)-7-(4-bromo-3-(trifluoromethyl)benzoyl)-6-methyl-4-oxo-5,6,7,8-tetrahydropyrido[3,4-d]pyrimidin-3(4H)-yl)-N-methylbenzamide] showed a CC50 at 3 days in series [1] of 27 µM. Moreover, the EC50 in series [2] (setting [3]) lay within 0.5 to 5 µM.
Consider `CNC(=O)c1ccc(-n2c(NCc3ccccc3-c3ccccn3)nc3c(c2=O)C[C@@H](C)N(C(=O)c2ccc(Br)c(C(F)(F)F)c2)C3)c(Cl)c1` (single isomer, unassigned) [Compound 1a], for which, in series [1], the CC50 at 3 days is above 50 µM. Also, the EC50 in series [2] (setting [3]) is below 0.05 µM.
`CNC(=O)c1ccc(-n2c(N(Cc3ccccc3)CC3CC3)nc3c(c2=O)C[C@@H](C)N(C(=O)c2ccc(Br)c(C(F)(F)F)c2)C3)cc1` [Compound 4, (R)-4-(2-(benzyl(cyclopropylmethyl)amino)-7-(4-bromo-3-(trifluoromethyl)benzoyl)-6-methyl-4-oxo-5,6,7,8-tetrahydropyrido[3,4-d]pyrimidin-3(4H)-yl)-N-methylbenzamide] returned a 50% cytotoxic concentration (CC50) at 3 days in series [1] above 50 µM. Further, the EC50 in series [2] (setting [3]) is below 0.05 µM.
In series [1], `CCc1ccn(-c2nc3c(c(=O)n2-c2ccc(C(=O)NC)cc2)C[C@@H](C)N(C(=O)c2ccc(Br)c(C(F)(F)F)c2)C3)n1` [Compound 15] returned a half-maximal cytotoxic concentration (CC50) at 3 days above 50 µM. Besides, the EC50 in series [2] (setting [3]) is below 0.05 µM.
`CCN1CCC(c2nc3c(c(=O)n2-c2ccc(C(=O)NC)cc2)CC(C)N(C(=O)c2ccc(Br)c(C(F)(F)F)c2)C3)C1` (stereo not shown) [Compound 18, 4-(7-(4-bromo-3-(trifluoromethyl)benzoyl)-2-(1-ethylpyrrolidin-3-yl)-6-methyl-4-oxo-5,6,7,8-tetrahydropyrido[3,4-d]pyrimidin-3(4H)-yl)-N-methylbenzamide] registered a CC50 at 3 days in series [1] above 50 µM. Moreover, in series [2] (setting [3]), the EC50 is above 5 µM.
In series [1], `CNC(=O)c1ccc(-n2c(-c3cccc(C(C)C)n3)nc3c(c2=O)C[C@@H](C)N(C(=O)c2ccc(Br)c(C(F)(F)F)c2)C3)cc1` [Compound 8, (R)-4-(7-(4-bromo-3-(trifluoromethyl)benzoyl)-2-(6-isopropylpyridin-2-yl)-6-methyl-4-oxo-5,6,7,8-tetrahydropyrido[3,4-d]pyrimidin-3(4H)-yl)-N-methylbenzamide] gave a CC50 at 3 days of 30 µM. Also, in series [2] (setting [3]), the EC50 is below 0.05 µM.
For `CNC(=O)c1ccc(-n2c(-n3ccc(C4CC4)n3)nc3c(c2=O)C[C@@H](C)N(C(=O)c2ccc(Br)c(C(F)(F)F)c2)C3)cc1` [Compound 10, (R)-4-(7-(4-bromo-3-(trifluoromethyl)benzoyl)-2-(3-cyclopropyl-1H-pyrazol-1-yl)-6-methyl-4-oxo-5,6,7,8-tetrahydropyrido[3,4-d]pyrimidin-3(4H)-yl)-N-methylbenzamide], in that order: above 50 µM and below 0.05 µM.
Compound `CNC(=O)c1ccc(-n2c(-n3ccc(C(C)C)n3)nc3c(c2=O)C[C@@H](C)N(C(=O)c2ccc(Br)c(C(F)(F)F)c2)C3)cc1` [Compound 2, (R)-4-(7-(4-bromo-3-(trifluoromethyl)benzoyl)-2-(3-isopropyl-1H-pyrazol-1-yl)-6-methyl-4-oxo-5,6,7,8-tetrahydropyrido[3,4-d]pyrimidin-3(4H)-yl)-N-methylbenzamide] yielded a CC50 at 3 days in series [1] above 50 µM. In addition, the EC50 in series [2] (setting [3]) is below 0.05 µM.
`CNC(=O)c1ccc(-n2c(N(Cc3ccccc3)C3CC(F)(F)C3)nc3c(c2=O)C[C@@H](C)N(C(=O)c2ccc(Br)c(C(F)(F)F)c2)C3)cc1` [Compound 3, (R)-4-(2-(benzyl(3,3-difluorocyclobutyl)amino)-7-(4-bromo-3-(trifluoromethyl)benzoyl)-6-methyl-4-oxo-5,6,7,8-tetrahydropyrido[3,4-d]pyrimidin-3(4H)-yl)-N-methylbenzamide]: the CC50 at 3 days in series [1] was above 50 µM. Also, the EC50 in series [2] (setting [3]) was below 0.05 µM.
Compound `CNC(=O)c1ccc(-n2c(-n3cccn3)nc3c(c2=O)C[C@@H](C)N(C(=O)c2ccc(Br)c(C(F)(F)F)c2)C3)cc1` [Compound 6, (R)-4-(7-(4-bromo-3-(trifluoromethyl)benzoyl)-6-methyl-4-oxo-2-(1H-pyrazol-1-yl)-5,6,7,8-tetrahydropyrido[3,4-d]pyrimidin-3(4H)-yl)-N-methylbenzamide] registered a CC50 at 3 days in series [1] above 50 µM. The EC50 in series [2] (setting [3]) is below 0.05 µM.
For `CNC(=O)c1ccc(-n2c(-n3cc(CC(C)C)cn3)nc3c(c2=O)C[C@@H](C)N(C(=O)c2ccc(Br)c(C(F)(F)F)c2)C3)cc1` [Compound 16], in series [1], the half-maximal cytotoxic concentration (CC50) at 3 days was above 50 µM. The EC50 in series [2] (setting [3]) fell in the range of 0.05 to 0.5 µM.
In series [1], `CNC(=O)c1ccc(-n2c(-n3ccc(CC(C)C)n3)nc3c(c2=O)C[C@@H](C)N(C(=O)c2ccc(Br)c(C(F)(F)F)c2)C3)cc1` [Compound 14] displayed a 50% cytotoxic concentration (CC50) at 3 days above 50 µM. Further, in series [2] (setting [3]), the EC50 was below 0.05 µM.
With `CNC(=O)c1ccc(-n2c(N(Cc3ccccc3)C3CCC3)nc3c(c2=O)C[C@@H](C)N(C(=O)c2ccc(Br)c(C(F)(F)F)c2)C3)cc1` [Compound 5, (R)-4-(2-(benzyl(cyclobutyl)amino)-7-(4-bromo-3-(trifluoromethyl)benzoyl)-6-methyl-4-oxo-5,6,7,8-tetrahydropyrido[3,4-d]pyrimidin-3(4H)-yl)-N-methylbenzamide], the CC50 at 3 days in series [1] is above 0.5 µM. Moreover, the EC50 in series [2] (HepG2.117, 72 h) was below 0.05 µM.
For the compound `CNC(=O)c1ccc(-n2c(-n3cc(C4CC4)cn3)nc3c(c2=O)C[C@@H](C)N(C(=O)c2ccc(Br)c(C(F)(F)F)c2)C3)cc1` [Compound 9, (R)-4-(7-(4-bromo-3-(trifluoromethyl)benzoyl)-2-(4-cyclopropyl-1H-pyrazol-1-yl)-6-methyl-4-oxo-5,6,7,8-tetrahydropyrido[3,4-d]pyrimidin-3(4H)-yl)-N-methylbenzamide], the CC50 at 3 days in series [1] came out at 27.8 µM. The EC50 in series [2] (setting [3]) fell in the range of 0.05 to 0.5 µM.
